Assay results reported in patent publication US4973465A, “Microcrystals comprising an active substance having an affinity for phospholipids, and at least one phospholipid, process of preparation” (priority 1986, dated 1990).
Values after ≈ are worked out from the molar mass of the structure shown.

System: infected macrophages
Assay: in vitro activity relative to infected macrophages, microcrystals containing cholesterol
Format: cell-based

`C[C@@H]1[C@H](O)[C@@H](C)/C=C/C=C/C=C/C=C/C=C/C=C/C=C/[C@H](O[C@@H]2O[C@H](C)[C@@H](O)[C@H](N)[C@@H]2O)C[C@@H]2O[C@](O)(C[C@@H](O)C[C@@H](O)[C@H](O)CC[C@@H](O)C[C@@H](O)CC(=O)O[C@H]1C)C[C@H](O)[C@H]2C(=O)O` [control amphotericin B, amphotericin B] was tested, and the “MIC on infected macrophages” value was 0.4 µM (≈ 0.37 µg/mL).
